Measured values published in article PMC8379256, “A xanthene derivative, DS20060511, attenuates glucose intolerance by inducing skeletal muscle-specific GLUT4 translocation in mice” (Communications Biology, 2021).
“And” between values parts separate entries of the source, which are not always exact repeats. Equal values may be shown once.

Experiments:
[1] = test system: isolated skeletal muscles; assay: 2-DG uptake with muscle contraction (5 Hz electrical stimulation) in isolated muscles; design: species or system mouse; settings: for IC 2DOG: incubation 10 min
Protocol: The soleus or EDL muscle was removed from anesthetized mice (isoflurane anesthesia) that had been denied access to food overnight, and incubated with oxygenated (95% O2/5% CO2) Krebs-Henseleit Bicarbonate (KHB) buffer (118.1 mM NaCl, 4.7 mM KCl, 1.1 mM KH2PO4, 1.2 mM MgSO4, 2.5 mM CaCl2, and 25 mM NaHCO3, pH7.4) in the presence of 11.1 mM glucose at 37 °C. The muscle specimens were then treated with the indicated concentrations of the compounds in KHB buffer containing 11.1 mM glucose and 8 mM mannitol for 10 min at 37 °C. Thereafter, the muscles were rinsed with KHB buffer containing 8 mM mannitol and the compounds for 5 min at 37 °C. Lastly, the muscles were treated with the compounds in KHB buffer containing 1 mM 2-DG (with 0.3 μCi mL^−1 [^3H]-2-DG) and 8 mM mannitol (with 0.03 μCi mL^−1 [^14C]-mannitol) for 10 min at 37 °C. After the muscle specimens were washed, they were lysed with 1 N NaOH and neutralized with 1 N HCl. The ^14C- and ^3H-specific activities were counted with a liquid scintillation counter. The specific uptake of 2-DG was calculated by subtracting the nonspecific uptake of mannitol from the total 2-DG uptake. To investigate the effects of muscle contraction, muscle contraction was induced by electrical stimulation with 5 Hz (1 ms pulse duration, 100 V) for 10 min (SEN-5201, Nihon Koden, Tokyo, Japan).

AMPK = AMPK (Thr172) phosphorylation in isolated muscles with or without electrical stimulation; design: species or system mouse; settings: isolated skeletal muscle; 10 μM DS20060511; Fig. 6b
[2] = DS20060511 1 μM, electrical stimulation +, muscles #1-3

For COc1ccc2c(C)c(C(=O)O)ccc2c1C1C2=C(CC(C)(C)CC2=O)OC2=C1C(=O)CC(C)(C)C2 [DS20060511], the “IC 2DOG” value [1, 2] was 385 nmol/g and 372 nmol/g and 382 nmol/g, the “Raio (2-DG uptake relative to unstimulated control)” value [1, 2] was 2.15 and 2.08 and 2.17 and the “IC 2DOG” value ([1]; DS20060511 10 μM, electrical stimulation +, muscles #1-3) was 366 nmol/g and 368 nmol/g and 397 nmol/g. For the same molecule, the “2-DG uptake with electrical muscle stimulation” value ([1]; vs electrical stimulation alone, Fig. 6a) was “elevated to a greater degree” and the AMPK phosphorylation level (AMPK) was “no such change was observed”.
